Test results from US12263144B2, “Methods of treating IgA nephropathy with thiol-containing molecules” (Accubit LLC—Biotechnology, priority 2020, dated 2025).

Assays:
Type in all cases: biochemical
[1] = system: Rat rIgA (poly-rIgA); assay: SEC determination of poly- and mono-rIgA content of rat rIgA after treatment; conditions: 1 h 37° C., PBS, SEC AUC
Method: (§1) The overall complex size of IgA aggregates was determined either by size-exclusion chromatography (SEC: Superdex 200 Increase 10/300 by GL Cytiva), or by SDS-PAGE. For evaluating the involvement of intermolecular disulfide connectivity in IgA complexes, IgA samples were treated with either reducing agents, such as DTT, TCEP or reduced glutathione (Sigma), or interventional drugs, such as cysteamine (Sigma), WR-1065 (Sigma) and N-Acetyl-L-cysteine (VWR Chemicals) in phosphate-buffered saline (PBS) pH7.4. Before running on SEC, samples were treated with the drugs at indicated concentrations at 37° C. for one hour.
In the meantime, the SEC column was also equilibrated with PBS supplemented with the reducing agent at the same concentration. For running SEC, 100 μL of the recombinant IgA (concentration varies between 1 mg/mL and 8 mg/mL) or purified native human IgA1 (˜1 mg/mL) was loaded to the column and UV absorption was recorded following elution. […] The ratios between poly-rIgA and mono-rIgA were calculated as between the corresponding areas under the curve (AUC), and the treatment effect of the thiol agents was judged by the reduction of the poly-rIgA level with a compensatory increase of the mono-rIgA content.
To further investigate specific cysteine residue(s) involved in IgA complexes, expression vectors were constructed to produce recombinant IgA (rIgA) Fc segments of rat and human sequences (FIG. 2, part A) as discussed above. Rat IgA analogs were expressed in BL21 DE3 strain of E. coil and recombinant protein were purified from the bacterial lysate using Histrap HP columns (GE Healthcare) by running fast protein liquid chromatography (FPLC). Human recombinant IgA mimetics were produced from human embryo kidney (HEK293) cells by transfection of the expressing plasmids. Recombinant IgA proteins expressed by the cells were secreted into the culture medium, and they were subsequently purified by Histrap HP columns by FPLC using standard procedures. […] Rat rIgA was produced from bacterial expression as discussed above.
Cysteamine (Cy), an aminothiol that can react with cysteine, is both a natural metabolite produced in mammalian cells and a clinical drug used for treatment of cystinosis. In cystinosis, cysteamine reduces the disulfide bond in cystine, which is the oxidated dimer of amino acid cysteine (FIG. 4, part A). In the context of cysteine residues in proteins, endogenous cysteamine as well as the therapeutic drug forms mixed disulfides with susceptible cysteine sulfhydryl groups in a process called cysteamination (FIG. 4, part B). It was sought to determine whether cysteamine could reduce Cys471-disulfides to disaggregate poly-IgA. Rat rIgA (SEQ ID NO.4) was treated with various concentrations of cysteamine for one hour at 37° C. in phosphate buffered saline at neutral pH and the protein complexes were analyzed by SEC. The SEC column (model: Superdex 200 Increase 10/300 GL by Cytiva) was preequilibrated with the same buffer supplemented with the same concentration of cysteamine.

[2] = target: T1, human IgA1 (poly-IgA1) (Homo sapiens, UniProt P01876); assay: SEC of native human IgA1 treated ex vivo; conditions: IgA1 from pooled plasma of IgA nephropathy patients, different concentrations, FIG. 5 C
T1 construct: human IgA1 whole molecule was purified from pooled plasma of IgA nephropathy patients; from tissue
T1 sequence (P01876 1-353 isoform P01876-1): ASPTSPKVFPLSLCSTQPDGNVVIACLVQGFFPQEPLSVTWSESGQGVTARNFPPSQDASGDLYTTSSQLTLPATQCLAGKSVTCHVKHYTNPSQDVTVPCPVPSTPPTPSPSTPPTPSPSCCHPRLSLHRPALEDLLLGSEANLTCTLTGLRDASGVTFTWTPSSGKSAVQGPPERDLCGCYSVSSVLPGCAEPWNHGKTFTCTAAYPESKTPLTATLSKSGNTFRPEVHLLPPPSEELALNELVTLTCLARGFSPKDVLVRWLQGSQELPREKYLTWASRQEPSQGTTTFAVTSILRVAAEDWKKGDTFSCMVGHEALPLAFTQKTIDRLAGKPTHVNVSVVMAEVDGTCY
Source text: IgA1 from IgA nephropathy patient sera was purified by Jacalin (Thermo Scientific, USA)-directed affinity chromatography. Poly-IgA1 contents were further enriched via running Superdex 200 Increase gel filtration molecular sieve (GE Biosciences) and collecting high-molecular weight fractions from an AKTA protein purification system (GE Biosciences). Human serum from healthy donors was purchased from Sigma-Aldrich and total IgA1 was also purified by running Jacalin-directed chromatography. Purified total IgA1 was used for injecting mice.
as §1
(§2) In the meantime, the SEC column was also equilibrated with PBS supplemented with the reducing agent at the same concentration. For running SEC, 100 μL of the recombinant IgA (concentration varies between 1 mg/mL and 8 mg/mL) or purified native human IgA1 (˜1 mg/mL) was loaded to the column and UV absorption was recorded following elution. Recombinant IgA typically formed two elution peaks: a minor peak of ˜800 kDa poly-rIgA followed by a major peak of ˜170 kDa of monomeric rIgA. The ratios between poly-rIgA and mono-rIgA were calculated as between the corresponding areas under the curve (AUC), and the treatment effect of the thiol agents was judged by the reduction of the poly-rIgA level with a compensatory increase of the mono-rIgA content.
In addition, human IgA1 whole molecule was purified from pooled plasma of IgA nephropathy patients and subjected the sample to different concentrations of cysteamine (FIG. 5, part C). […]

[3] = target: T2, Human rIgA1 (poly-rIgA) (Homo sapiens, UniProt P01876); assay: SEC of human rIgA (HEK293-produced) after treatment; conditions: human rIgA from HEK293 cells, FIG. 5 B
T2 construct: IL-2 signal peptide (N, cleaved yes); 6xHis (N); made in house; host or cells: HEK293
T2 sequence (P01876 121-353 isoform P01876-1): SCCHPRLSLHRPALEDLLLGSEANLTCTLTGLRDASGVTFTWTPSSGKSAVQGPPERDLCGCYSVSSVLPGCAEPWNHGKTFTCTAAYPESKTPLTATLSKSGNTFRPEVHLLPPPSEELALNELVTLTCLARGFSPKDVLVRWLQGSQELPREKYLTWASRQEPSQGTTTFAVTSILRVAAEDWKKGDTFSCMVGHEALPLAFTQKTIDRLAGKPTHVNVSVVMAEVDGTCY
Method: as §1
as §2, with “content. […]” for “content.”

With `NCCS` [cysteamine] the “Mono-IgA (%)” value ([1]; cysteamine 0.1 mM) was 81.85%, the “Poly-IgA (%)” value ([1]; cysteamine 0.1 mM) was 18.15% and the “Mono-IgA (%)” value ([1]; cysteamine 1 mM) was 89.57%. For the same compound, the “Poly-IgA (%)” value ([1]; cysteamine 1 mM) was 10.43%, the “Mono-IgA (%)” value ([1]; cysteamine 5 mM) was 93.59% and the “Poly-IgA (%)” value ([1]; cysteamine 5 mM) was 6.414%. For the same compound, the “Mono-IgA (%)” value ([1]; cysteamine 10 mM) was 93.24%, the “Poly-IgA (%)” value ([1]; cysteamine 10 mM) was 6.759% and the “poly-IgA1 amount (SEC)” value [2] was “reduced the amounts of poly-IgA1”. For the same compound, the “poly-rIgA level (SEC)” value [3] was “reduction of poly-rIgA levels”.
